We go through 2 compounds from US20230338338A1, “PHARMACEUTICAL COMPOSITIONS COMPRISING IONIC LIQUIDS” (The Provost, Fellows, Foundation Scholars, and the other …, priority 2021, published 2023).

A value given as a limit tells only on which side of the number the result lay.

Assay type in all cases: physicochemical
Data set [1] in a line: Thermodynamic stability and miscibility of the ionic liquid in dissolution media (stirred 24 hours at 37° C., then monitored for two years). To be noted: for miscibility with dissolution medium: 2 to 85% w/w; for thermodynamic stability (crystallisation or liquid-liquid phase separation): 2 to 85% w/w BMIm Ibu:dissolution medium, stirred 24 hours at 37° C., then ambient conditions over two years. As to the method: The thermodynamic stability of BMIm Ibu (ionic liquid) in deionised water (DIW) and simulated intestinal fluid (SIF; 0.05 M phosphate buffer, pH 6.8) was quantified as follows: Ratios of 2 to 85% w/w BMIm Ibu:dissolution medium were placed in small vials and allowed to stir for 24 hours at 37° C.

Data set [2] in a line: Dissolution study, USP Apparatus 2, simulated intestinal fluid (SIF). To be noted: 0.05M phosphate buffer (pH 6.8), 900 ml, 37° C., 50 rpm, equivalent of 200 mg ibuprofenate ion, after 10 minutes until the end of four hours. As for the experimental part:
(§1) Dissolution studies were performed using a USP Apparatus 2 with a Sotax AT7 dissolution bath (Carl Stuart Limited, Dublin, Ireland). The mass of powder corresponding to the equivalent of 200 mg of ibuprofenate ion (equivalent to one dose) was added to 900 ml of dissolution media equilibrated at 37° C. stirred at 50 rpm. Samples were taken and replaced with fresh media every 5 min for the first 30 min, then at 45 min, 60 min and then every 30 min for the remainder of the experiment. The first 2 ml of each 5 ml sample was filtered and discarded before the remaining sample was filtered through a 0.45 μm nylon filter into a HPLC vial. All experiments were carried out in triplicate. A sample of the powder was assayed by completely dissolving it in methanol (n=3) and finding the ionic liquid content by HPLC.
The dissolution of powders 1 and 5 to 8 in simulated intestinal fluid (SIF), 0.05M phosphate buffer (pH 6.8) over a period of four hours was studied.
The dissolution of powders 9 and 10 in simulated intestinal fluid (SIF), 0.05M phosphate buffer (pH 6.8) over a period of four hours was studied.

The nature of data set [3]: Dissolution study, USP Apparatus 2, deionised water. To be noted: 900 ml, 37° C., 50 rpm, equivalent of 200 mg ibuprofenate ion, after 10 minutes until the end of four hours. As to the method: as §1
The dissolution of powders 1 and 5 to 8 in deionised water over a period of four hours was studied.
The dissolution of powders 9 and 10 in deionised water over a period of four hours was studied.
An ibuprofen amorphous solid dispersion was also tested. The amorphous solid dispersion was prepared by spray drying a solution of ibuprofen and hydroxypropyl methylcellulose in methanol in the same way as Powders 1 to 8. The ibuprofen content of the amorphous solid dispersion was the same as Powder 1.

[4] abbreviates: simulated intestinal fluid (SIF; 0.05 M phosphate buffer, pH 6.8).

`CC(C)Cc1ccc(C(C)C(=O)[O-])cc1.CCCCn1cc[n+](C)c1` (stereo not drawn) [BMIm Ibu, 1-butyl-3-methyl imidazolium ibuprofenate]: in data set [1] (deionised water (DIW)), the “miscibility with dissolution medium” value is “fully miscible” and the “thermodynamic stability (crystallisation or liquid-liquid phase separation)” value is “No crystallisation or phase separation was observed”. Further, in data set [1] (setting [4]), the “miscibility with dissolution medium” value was “fully miscible” and the “thermodynamic stability (crystallisation or liquid-liquid phase separation)” value is given as “No crystallisation or phase separation was observed”.

On to `CC(C)Cc1ccc(C(C)C(=O)O)cc1` (stereo not drawn) [crystalline ibuprofen, ibuprofen], for which the figures for the level of dissolution in data set [2] and in data set [3] were 100% and no more than 30%, respectively.
